{
  "source": "patent US20130197073A1",
  "about": "“HYPOCHOLESTEROLEMIC, ANTI-INFLAMMATORY AND ANTIEPILEPTIC NEUROPROTECTIVE COMPOUND” (NEURON BIOPHARMA, S.A., priority 2010, published 2013)",
  "key": {"caspase 3/7": {"tested_on": "caspase 3/7", "assay": "Inhibition of activation of caspase 3/7 in camptothecin cell model of apoptosis", "type": "cell-based, human", "settings": "Homo sapiens, 50 μM CPT 6 hours, read-out: inhibition of caspase 3/7 with respect to camptothecin", "procedure": "(§1) The assay was performed on human neuroblastoma SK-N-MC cells in culture, maintained as described in section 2.1.\nThe induction of apoptosis on the cells in culture was performed with camptothecin (CPT), which triggers the activation of cell apoptosis. Apoptosis was quantified by means of the measurement of the activation of effector caspases, caspase 3 or caspase 7, for which a kit for the fluorometric detection of active caspase 3/7 (Apo-ONE® Homogeneous Caspase-3/7, Promega) was used. Active caspases 3 or 7 of the cells cause the rupture of a substrate, which leads to fluorescence emission, which is read by means of a fluorometer. The effect of the pretreatment of compound NST0060 at 10 and 40 μM on the activation of caspase 3/7 produced by 50 μM of camptothecin (CPT) in the SK-N-MC cells was thus analyzed. These cells, not exceeding 15 passages, were seeded on 96-well plates treated for adherent cells with a cell concentration of 5×10^4 cells/well; 3 wells of the plate were seeded for each assay condition.\nAfter 24 hours of cell incubation (at 37° C. and 5% CO2), the pretreatment with NST0060 at 10 and 40 μM was performed.\nThe cells were incubated (at 37° C. and 5% CO2) with these treatments for 6 hours, after which cell lysis buffer and the caspase substrate at the concentrations specified by the manufacturer were added; it was incubated at room temperature for 30 minutes and then frozen at −20° C. overnight. Fluorescence was measured the next day (499/521 nm, Exci/Emi)."}, "seladin-1/DHCR24 gene": {"tested_on": "seladin-1/DHCR24 gene", "assay": "Induction of seladin-1/DHCR24 gene expression, quantitative RT-PCR", "type": "cell-based, human", "settings": "4 μM, 24 hours, GAPDH-normalized; increase at all tested concentrations (1, 4, 10, 40 μM)", "procedure": "The assay was performed on human neuroblastoma SK-N-MC cells in culture from the American Type Culture Collection (ATCC), in all cases strict rules of sterility were followed and the manipulation was performed in class II biological safety cabinets following European standard EN 12469. The cells were maintained in the following culture medium: Minimum Essential Medium Eagle (MEM) supplemented with 1 mM sodium pyruvate, 2 mM L-glutamine, 0.1 mM non-essential amino acids, 0.05 mg/ml gentamicin and 10% fetal bovine serum.\nReal-time quantitative RT-PCR was used to analyze the expression of the seladin-1/DHCR24 gene. The SK-N-MC cells were treated for 24 hours in the absence (control) or presence of NST0060 at 1, 4, 10 or 40 μM. The total RNA was extracted by means of the High Pure RNA Isolation kit (Roche) and the RNA amount and quality were analyzed by means of spectrophotometry in the Infinite 200 NanoQuant system (Tecan). The RT-PCR was performed by means of two steps, first, the mRNA was transformed to cDNA using the RNA to cDNA kit (Applied Biosystem) and the gene expression was subsequently analyzed by means of TaqMan probes using the validated probes Hs00207388_m1 for seladin-1/DHCR24 and Hs99999905_m1 for GAPDH (used to normalize the results), both of which are human-specific, in the 7500 Fast Real-Time PCR System equipment (Applied Biosystem). […]"}, "[1]": {"tested_on": "human neuroblastoma SK-N-MC cells", "assay": "Inhibition of DNA fragmentation (sub-G1, flow cytometry) in camptothecin cell model of apoptosis", "type": "cell-based", "settings": "pretreatment 24 hours at 10 μM; 50 μM CPT 6 hours", "procedure": "as §1\nThe inhibition caused by compound NST0060 with respect to apoptosis caused by treatment with camptothecin (CPT), which inhibits the topoisomerase I enzyme, prevents DNA duplication and triggers apoptotic cell death. These cells, not exceeding 15 passages, were seeded on 6-well plates treated for adherent cells with a cell concentration of 7×10^5 cells/well; 2 wells of the plate were seeded for each assay condition.\nAfter 24 hours of cell incubation (at 37° C. and 5% CO2), cell pretreatment was performed with 10 and 40 μM of NST0060 for 24 hours; they were subsequently treated with 50 μM CPT for 6 hours. Furthermore, Z-VAD-fmk at 50 μM was used as positive control for inhibition.\nAfter treatment, the cells were collected along with their culture medium and centrifuged at 300×g for 5 minutes. The medium was removed, a washing was performed with PBS and the cells were fixed for 2 minutes with 500 μl of 70% ethanol at −20° C. […] After this time they were analyzed by flow cytometry, comparing the fluorescence of propidium iodide with respect to the amount of DNA. The percentage of apoptosis was measured on the sub-G1 region of each of the conditions."}, "FVB/NHan mice": {"tested_on": "FVB/NHan mice", "assay": "Death caused by acute administration of kainate in mice, survival", "type": "in vivo", "settings": "50 mg/kg i.p. at 24 and 0.5 hours before KA 25 mg/kg and daily up to 7 days; p<0.05", "procedure": "All the animals included during the experimental process were 12-week old males from the FVB/NHan strain. The experiments were carried out strictly complying with the standard entitled Guidance on the Operation of Animals (Scientific Procedures, Act. 1986). The animals were subjected to their respective quarantine period and were treated with maximum precaution to minimize possible contaminations during inoculations and handling.\nThe animals were intraperitoneally inoculated with 25 mg/kg of kainate (KA) dissolved in PBS. Fourteen animals were pretreated at 24 and 0.5 hours before inoculation with KA and subsequently on a daily basis up to 7 days post-inoculation by means of intraperitoneal injection with 0.25% methyl cellulose in PBS as a vehicle (vehicle+KA administration regimen) and 14 were pretreated at 24 and 0.5 hours before inoculation with KA and subsequently on a daily basis up to 7 days post-inoculation by means of intraperitoneal injection with compound NST0060 at a dose of 50 mg/kg (NST0060+KA administration regimen). After inoculation, the animals were individually housed in trays to monitor them."}, "[2]": {"tested_on": "zebrafish (Danio rerio, AB strain) embryos", "assay": "Zebrafish embryo acute toxicity, percentage of healthy larvae", "settings": "mean±SD"}, "in vitro": {"assay": "in vitro", "settings": "PAMPA, pH 7.4", "source_text": "To that end, the BBB was mimicked in an in vitro system that allowed evaluating the compound without using cells, and where the so-called PAMPA (Parallel Artificial Membrane Permeation Assay) was used, using a sandwich system considering the crossing of compounds by means of passive diffusion.\nA mixture of marketed lipids derived from pig brain with a phospholipid composition very similar to that which forms the barrier and known as PBL (Porcine Polar Brain Lipid) was used to mimic the blood-brain barrier. This compound was stored at −20° C. dissolved in dodecane at 100 μg/ml in glass vials.\nTo that end, a 1/100 dilution of the compounds was performed, being the DMSO content in all cases 1%.\nFive microliters of PBL at 20 μg/ml prepared from the frozen stock at 100 μg/mL were added in a 96-well filter plate, with a PVDF membrane and a pore size of 45 μm (MAIPN4550, Millipore). After 2 minutes, 300 μl of the phosphate buffer used to dilute the compounds were added. […] After that time, 100 μl from the wells of the donor plates and acceptor plates were transferred to a special 96-well plate for UV reading. […] The percentage of barrier crossing as well as the effective permeability (Pe) were calculated from the spectrophotometric data. […]\n[Drug]acceptor=Absorbance of the acceptor well\n[Drug]equilibrium=Absorbance of the mean of the basal wells/2 […]"}},
  "data": [
    {"smiles": "CCCC(CCC)C(=O)O[C@H]1C[C@@H](C)C=C2C=C[C@H](C)[C@H](CC[C@@H]3C[C@@H](O)CC(=O)O3)[C@H]21", "note": "[NST0060, 2-propylpentanoic acid (1S,3R,7S,8S,8aR)-1,2,3,7,8,8a-hexahydro-3,7-dimethyl-8-[2-[(2R,4R)-tetrahydro-4-hydroxy-6-oxo-2H-pyran-2-yl]ethyl]-1-naphthalenyl ester]", "values": [
      {"measurement": "inhibition at 10 µM", "setting": "caspase 3/7; pretreatment 24 h at 10 μM", "value": 58, "unit": "%"},
      {"measurement": "inhibition at 40 µM", "setting": "caspase 3/7; pretreatment 24 h at 40 μM", "value": 32, "unit": "%"},
      {"measurement": "increase of seladin-1/DHCR24 gene expression with respect to the control", "setting": "seladin-1/DHCR24 gene", "value": 2.5, "unit": "fold"},
      {"measurement": "maximum protection against apoptosis (DNA fragmentation) caused by CPT", "setting": "[1]", "value": 41, "unit": "%"},
      {"measurement": "mortality caused by KA", "setting": "FVB/NHan mice", "value": "reduces mortality observed in a statistically significant manner"},
      {"measurement": "percentage of healthy larvae", "setting": "[2]; dose of 1 mg/Kg", "value": "100±0.0", "unit": "%"},
      {"measurement": "percentage of healthy larvae", "setting": "[2]; dose of 3 mg/Kg", "value": "86.7±6.2", "unit": "%"},
      {"measurement": "Papp at 18 h, 100 μM", "setting": "in vitro", "value": "8.8 ± 1.2", "unit": "×10⁻⁶ cm/s"}
    ]}
  ]
}
